# Source: patent publication US4505914A, “Pharmaceutical for the treatment of sleep disorders” (Merckle GmbH, priority 1982, dated 1985)
# Values joined by “and” are separate entries in the source; they are usually repeats but may differ in a detail not shown here. Equal values may be shown once.
# Legend:
# [1] = literature, in words; cited from earlier work
# male NMRJ mice [2] = test: Sleeping time prolongation under the influence of cinnarizine and flunarizine (ED50); format: in vivo, mouse; conditions: for Effect on the action of barbiturates: in words; for ED50: sleeping time increased by 50%
# Description: (§1) A typical representative from the group of barbiturates with long action (phenobarbital), with short to average action (cyclobarbital-calcium) as well as ultra short action (hexobarbital) as well as a combination of two barbiturates (cyclobarbital-calcium+hexobarbital) was applied orally in graduated doses.
# Determination of the sleeping time prolongation under the influence of […]
# tail and corneal reflex = test: Optimum effect (tail and corneal reflex according to Irvin); format: in vivo, mouse; set-up: key to Optimum Reflex: 0: normal reaction; -1: slightly lessened; -2: clearly lessened; -3: highly lessened; -4: complete lack of reaction
# Method: (§2) As a criterium for the onset of the effect, the beginning of the excitation stage was measured. For the optimum effect, the beginning of the sleep phase was tested every 10 minutes by the tail and corneal reflex (according to Irvin) according to the following designations:
# -4 = complete lack of reaction
# (§3) Sleeping Time, Onset of Effect and Optium Effect under the influence of […]
# male NMR.tau. mice [3] = test: Onset of effect (beginning of the excitation stage); format: in vivo, mouse
# Method: as §2, §3
# male NMR.tau. mice [4] = test: Sleep duration, prolongation of sleeping time and ED50 under the influence of cinnarizine (Table 3); format: in vivo, mouse
# Description: as §1
# male NMRJ mice [5] = test: Determination of the oral ED50 of the barbiturates (sleep time); format: in vivo, mouse; conditions: for ED50: Mus musculus, 0.5 h, oral, dose required for a 30-minute sleeping period
# Description: as §1
# Determination of the oral ED50 of
# the barbiturates using 10 male NMR.tau. mice/group
# [6] = literature, in words; cited from earlier work; remark: listed apart in the source
# [7] = in words; cited from earlier work
# [8] = cinnarizine 0.50 + hexobarbital 710 mg/kg
# [9] = cinnarizine 0.75 + hexobarbital 710 mg/kg
# [10] = cinnarizine 1.0 + cyclobarbital calcium 239 mg/kg
# [11] = cinnarizine 1.0 + cyclobarbital calcium + hexobarbital (40 + 30) 225 mg/kg
# [12] = cinnarizine 1.00 + hexobarbital 710 mg/kg
# [13] = cinnarizine 2.5 + cyclobarbital calcium 239 mg/kg
# [14] = cinnarizine 2.5 + cyclobarbital calcium + hexobarbital (40 + 30) 225 mg/kg
# [15] = cinnarizine 5.0 + cyclobarbital calcium 239 mg/kg
# [16] = cinnarizine 5.0 + cyclobarbital calcium + hexobarbital (40 + 30) 225 mg/kg
# [17] = hexobarbital 710 mg/kg alone (C)
# [18] = cyclobarbital calcium 239 mg/kg alone (C)
compound,measurement,setting,value
CCCC(C)(COC(N)=O)COC(N)=O [Meprobamate],Effect on barbiturates,[1],pontentiating or enhancing effect on barbiturates
"C(=C\c1ccccc1)/CN1CCN(C(c2ccccc2)c2ccccc2)CC1 [Cinnarizine, 1-benzhydryl-4-trans-cinnamylpiperazine]",Sleep Time,male NMRJ mice [2]; cinnarizine 0.5 mg/kg + hexobarbital 710 mg/kg,35.37 min
same,Sleep Time,male NMRJ mice [2]; cinnarizine 1.0 mg/kg + cyclobarbital-Ca 239 mg/kg,24.34 min
same,Sleep Time,male NMRJ mice [2]; cinnarizine 1.0 mg/kg + cyclobarbital-Ca + hexobarbital (40 + 30) 225 mg/kg,31.09 min
same,Sleep Time,"male NMRJ mice [2]; cinnarizine 1.0 mg/kg + hexobarbital 710 mg/kg, **p <0.01",65.58 min
same,Sleep Time,male NMRJ mice [2]; cinnarizine 1 mg/kg + phenobarbital 256 mg/kg,25.78 min
same,Sleep Time,"male NMRJ mice [2]; cinnarizine 2.5 mg/kg + cyclobarbital-Ca 239 mg/kg, *p <0.05",41.43 min
same,Sleep Time,male NMRJ mice [2]; cinnarizine 2.5 mg/kg + cyclobarbital-Ca + hexobarbital (40 + 30) 225 mg/kg,37.92 min
same,Sleep Time,"male NMRJ mice [2]; cinnarizine 5.0 mg/kg + cyclobarbital-Ca 239 mg/kg, **p <0.01",49.99 min
same,Sleep Time,"male NMRJ mice [2]; cinnarizine 5.0 mg/kg + cyclobarbital-Ca + hexobarbital (40 + 30) 225 mg/kg, *p <0.05",53.22 min
same,Sleep Time,male NMRJ mice [2]; cinnarizine 5 mg/kg + phenobarbital 256 mg/kg,32.85 min
same,Sleep Time,"male NMRJ mice [2]; cinnarizine 10 mg/kg + phenobarbital 256 mg/kg, *p <0.05",43.55 min
same,Sleep Time,"male NMRJ mice [2]; cinnarizine […] + hexobarbital 710 mg/kg, **p <0.01",43.93 min
same,Effect on the action of barbiturates,male NMRJ mice [2],potentiating or enhancing effect
same,Optimum % of control,tail and corneal reflex; [8],278.2-336.0%
same,Optimum Min.,tail and corneal reflex; [8],10 to 30 min
same,Optimum Reflex,tail and corneal reflex; [8],-3
same,Optimum Min.,tail and corneal reflex; [9],10 to 20 min
same,Optimum Reflex,tail and corneal reflex; [9],-3
same,Optimum % of control,tail and corneal reflex; [10],166.7%
same,Optimum Min.,tail and corneal reflex; [10],10 min
same,Optimum Reflex,tail and corneal reflex; [10],-1
same,Optimum % of control,tail and corneal reflex; [11],156.3-183.3%
same,Optimum Min.,tail and corneal reflex; [11],10 to 20 min
same,Optimum Reflex,tail and corneal reflex; [11],-2
same,Optimum % of control,tail and corneal reflex; [12],300.8-407.0%
same,Optimum Min.,tail and corneal reflex; [12],10 to 30 min
same,Optimum Reflex,tail and corneal reflex; [12],-4
same,Optimum % of control,tail and corneal reflex; [13],350.0%
same,Optimum Min.,tail and corneal reflex; [13],10 to 30 min
same,Optimum Reflex,tail and corneal reflex; [13],-1
same,Optimum % of control,tail and corneal reflex; [14],138.8-177.5%
same,Optimum Min.,tail and corneal reflex; [14],10 to 20 min
same,Optimum Reflex,tail and corneal reflex; [14],-2
same,Optimum % of control,tail and corneal reflex; [15],350.0%
same,Optimum Min.,tail and corneal reflex; [15],10 min
same,Optimum Reflex,tail and corneal reflex; [15],-2
same,Optimum % of control,tail and corneal reflex; [16],175.0-233.0%
same,Optimum Min.,tail and corneal reflex; [16],10 to 40 min
same,Onset p.a. % of control,male NMR.tau. mice [3]; [8],86.2%
same,Onset x,male NMR.tau. mice [3]; [8],2.49 min
same,Onset p.a. % of control,male NMR.tau. mice [3]; [9],76.8%
same,Onset x,male NMR.tau. mice [3]; [9],2.22 min
same,Onset p.a. % of control,male NMR.tau. mice [3]; [10],51.3%
same,Onset x,male NMR.tau. mice [3]; [10],2.19 min
same,Onset p.a. % of control,male NMR.tau. mice [3]; [11],94.8%
same,Onset x,male NMR.tau. mice [3]; [11],1.09 min
same,Onset p.a. % of control,male NMR.tau. mice [3]; [12],55.0%
same,Onset x,male NMR.tau. mice [3]; [12],1.59 min
same,Onset p.a. % of control,male NMR.tau. mice [3]; [13],54.1%
same,Onset x,male NMR.tau. mice [3]; [13],2.31 min
same,Onset p.a. % of control,male NMR.tau. mice [3]; [14],102.6%
same,Onset x,male NMR.tau. mice [3]; [14],1.18 min
same,Onset p.a. % of control,male NMR.tau. mice [3]; [15],59.5%
same,Onset x,male NMR.tau. mice [3]; [15],2.54 min
same,Onset p.a. % of control,male NMR.tau. mice [3]; [16],102.6%
same,Onset x,male NMR.tau. mice [3]; [16],1.18 min
same,Sleep Time,male NMR.tau. mice [4]; [8],40.66 min
same,Sleep Time % of control,male NMR.tau. mice [4]; [8],113.4%
same,Sleep Time,male NMR.tau. mice [4]; [9],42.38 min
same,Sleep Time % of control,male NMR.tau. mice [4]; [9],118.2%
same,Sleep Time,male NMR.tau. mice [4]; [10],26.21 min
same,Sleep Time % of control,male NMR.tau. mice [4]; [10],106.4%
same,Sleep Time,male NMR.tau. mice [4]; [11],32.42 min
same,Sleep Time % of control,male NMR.tau. mice [4]; [11],92.6%
same,Sleep Time,male NMR.tau. mice [4]; [12],76.14 min
same,Sleep Time % of control,male NMR.tau. mice [4]; [12],212.3%
same,Sleep Time,male NMR.tau. mice [4]; [13],31.08 min
same,Sleep Time % of control,male NMR.tau. mice [4]; [13],126.1%
same,Sleep Time,male NMR.tau. mice [4]; [14],38.65 min
same,Sleep Time % of control,male NMR.tau. mice [4]; [14],110.4%
same,Sleep Time,male NMR.tau. mice [4]; [15],42.49 min
same,Sleep Time % of control,male NMR.tau. mice [4]; [15],172.4%
same,Sleep Time,male NMR.tau. mice [4]; [16],54.82 min
same,Sleep Time % of control,male NMR.tau. mice [4]; [16],156.6%
CN1C(=O)NC(=O)C(C)(C2=CCCCC2)C1=O (stereo not shown) [Hexobarbital],Sleep Time,"male NMRJ mice [2]; hexobarbital 710 mg/kg alone, cinnarizine series",32.74 min
same,Sleep Time,"male NMRJ mice [2]; hexobarbital 710 mg/kg alone, flunarizine series",38.78 min
same,Optimum % of control,tail and corneal reflex; [17],100.0%
same,Optimum Min.,tail and corneal reflex; [17],10 to 20 min
same,Optimum Reflex,tail and corneal reflex; [17],-1
same,Sleep Time,male NMRJ mice [5]; 250 mg/kg oral,3.03 min
same,Sleep Time,male NMRJ mice [5]; 500 mg/kg oral,16.52 min
same,Sleep Time,male NMRJ mice [5]; 750 mg/kg oral,32.53 min
same,Sleep Time,male NMRJ mice [5]; 1000 mg/kg oral,56.08 min
same,ED50,male NMRJ mice [5],710 mg/kg
same,Onset p.a. % of control,male NMR.tau. mice [3]; [17],100.0%
same,Onset x,male NMR.tau. mice [3]; [17],2.89 min
same,Sleep Time,male NMR.tau. mice [4]; [17],35.86 min
same,Sleep Time % of control,male NMR.tau. mice [4]; [17],100.0%
tocopherol,Effect on barbiturates,[1],increases the effect of barbiturates
CCC1(C2=CCCCC2)C(=O)NC(=O)NC1=O [Cyclobarbital-Ca],Sleep Time,"male NMRJ mice [2]; cyclobarbital-Ca 239 mg/kg alone, cinnarizine series",27.45 min
same,Sleep Time,"male NMRJ mice [2]; cyclobarbital-Ca 239 mg/kg alone, flunarizine series",32.03 min
same,Optimum % of control,tail and corneal reflex; [18],100.0%
same,Optimum Min.,tail and corneal reflex; [18],10 min
same,Sleep Time,male NMRJ mice [5]; 200 mg/kg oral,14.01 min
same,Sleep Time,male NMRJ mice [5]; 250 mg/kg oral,34.38 min
same,Sleep Time,male NMRJ mice [5]; 300 mg/kg oral,90 min
same,"Sleep Time, individual animals","male NMRJ mice [5]; 300 mg/kg oral, footnote 1",90 min and 60.5 min and 53.3 min
same,ED50,male NMRJ mice [5],239 mg/kg
same,Onset p.a. % of control,male NMR.tau. mice [3]; [18],100.0%
same,Onset x,male NMR.tau. mice [3]; [18],4.27 min
same,"Effect on onset, in words","male NMR.tau. mice [3]; mouse, in vivo",marked effect
same,Sleep Time,male NMR.tau. mice [4]; [18],24.64 min
same,Sleep Time % of control,male NMR.tau. mice [4]; [18],100.0%
CCC1(c2ccccc2)C(=O)NC(=O)NC1=O [Phenobarbital],Sleep Time,"male NMRJ mice [2]; phenobarbital 256 mg/kg alone, cinnarizine series",22.34 min
same,Sleep Time,male NMRJ mice [5]; 200 mg/kg oral,4.29 min
same,Sleep Time,male NMRJ mice [5]; 250 mg/kg oral,27.52 min
same,Sleep Time,male NMRJ mice [5]; 300 mg/kg oral,49.06 min
same,Sleep Time,male NMRJ mice [5]; 400 mg/kg oral,49.28 min
same,ED50,male NMRJ mice [5],256 mg/kg
OCC(S)CS (stereo not shown) [Dimercaprol (BAL)],Decomposition of pentobarbital,[6],checks the decomposition of pentobarbital
Fc1ccc(C(c2ccc(F)cc2)N2CCN(C/C=C/c3ccccc3)CC2)cc1 [Flunarizine],Sleep Time,male NMRJ mice [2]; flunarizine 0.25 mg/kg + cyclobarbital-Ca 239 mg/kg,39.54 min
same,Sleep Time,"male NMRJ mice [2]; flunarizine 1.0 mg/kg + cyclobarbital-Ca 239 mg/kg, ***p <0.001",62.67 min
same,Sleep Time,male NMRJ mice [2]; flunarizine 1.0 mg/kg + hexobarbital 710 mg/kg,40.44 min
same,Sleep Time,"male NMRJ mice [2]; flunarizine 2.5 mg/kg + cyclobarbital-Ca 239 mg/kg, ***p <0.001",75.15 min
same,Sleep Time,male NMRJ mice [2]; flunarizine 2.5 mg/kg + cyclobarbital-Ca + hexobarbital (40 + 30) 225 mg/kg,33.45 min
same,Sleep Time,male NMRJ mice [2]; flunarizine 2.5 mg/kg + hexobarbital 710 mg/kg,45.17 min
same,Sleep Time,"male NMRJ mice [2]; flunarizine 5.0 mg/kg + hexobarbital 710 mg/kg, ***p <0.001",94.51 min
same,Sleep Time,"male NMRJ mice [2]; flunarizine 10.0 mg/kg + cyclobarbital-Ca + hexobarbital (40 + 30) 225 mg/kg, **p <0.01",56.49 min
same,Sleep Time,"male NMRJ mice [2]; flunarizine 15.0 mg/kg + cyclobarbital-Ca + hexobarbital (40 + 30) 225 mg/kg, ***p <0.001",65.12 min
same,ED50,"male NMRJ mice [2]; flunarizine with cyclobarbital-Ca 239 mg/kg, range (0.29-0.45)",0.38 mg/kg
same,ED50,"male NMRJ mice [2]; flunarizine with cyclobarbital-Ca + hexobarbital (40 + 30) 225 mg/kg, range (6.85-8.30)",7.52 mg/kg
same,ED50,"male NMRJ mice [2]; flunarizine with hexobarbital 710 mg/kg, probit analysis",2.94 mg/kg
same,Dosage to obtain an ED50 with the combination of both barbiturates,male NMRJ mice [2]; in comparison with the individual barbiturates,higher dosages
same,Effect on the action of barbiturates,male NMRJ mice [2],potentiating or enhancing effect
same,Potency for cyclobarbital-calcium,male NMRJ mice [2]; with cyclobarbital-calcium,highest potency
same,Antihistaminic properties,[7],only weak antihistaminic properties
